Results taken from US20240116856A1 (Young BioPharma, LLC, priority 2020, published 2024).
“And” between values parts separate entries of the source, which are not always exact repeats. Equal entries are not always repeated. “Also recorded” adds a separate entry of the source. Where two headings read alike, the source gives them in different places.

What was measured:
Mouse plasma stability = settings: C57BL6 mouse plasma; 2 μM (YB-2), 5 μM (controls)
TRPV1 [1] = target: TRPV1 (Rattus norvegicus, UniProt O35433); settings: read-out: EC50 in Ca2+ influx assay, cited from earlier work
[2] = literature; cited from earlier work
OVCAR-8 ovarian tumor = assay: OVCAR-8 intraperitoneal xenograft in athymic nude mice; assay type: in vivo
Procedure: OVCAR-8 cells expressing red fluorescent protein were xenografted intraperitoneally in athymic nude mice to form tumors (Mol Cancer Ther 2020, 19, 89). After 4 weeks, mice were dosed with YB-1 or vehicle control (10% N-Methylpyrrolidone-72% PEG400—18% water) for 2 weeks (dosage: 5 mg/kg; ip treatment twice per week). As shown in FIGS. 16A-B, compared to vehicle group, animals treated with YB-1 for 2 weeks had 40% less tumor burden based on average radiant efficiency measured with IVIS and reduced approximately half of the body weight loss (7% average body weight loss for YB-1 treatment group vs. 13% average body weight loss for vehicle group).

[3] = test system: Src protein activation in MDA-MB-231 cells; assay: Cancer cell immunocytochemistry assay, Phospho-Src (Y416), MDA-MB-231; assay type: cell-based, human
Procedure: (§1) Human cancer cells (15,000 cells/well) in 96 well half area microplate (Cat #3882, Corning) were incubated overnight at 37° C., then compounds or DMSO control were added to the cell culture and incubated at 37° C. for 1-6 h. The cells were sequentially fixed with 4% formalin, permeabilized with 0.5% Triton X-100, blocked with 5% BSA in PBS, incubated with Human Phospho-Src (Y416) Antibody (Cat #MAB2685, R&D Systems) at rt for 2 h, incubated with the secondary antibody Goat Ant-Rabbit IgG H&L (Alexa Fluor 488) (Cat #ab150077, abeam) for 45 min, and incubated with DAPI (Cat #D9542, Sigma-Aldrich) for 5 min. Finally, the cells were washed and covered with PBS. The cell images were visualized on an inverted fluorescence microscope (Leica DMIL Fluorescent Inverted Microscope with Digital Camera, Leica Microsystems). Pictures were taken [FIGS. 14A-C. Green: Human Phospho-Src (Y416), the activated form of the Src protein; Blue: DAPI (stain nucleus of cell)]. The fluorescence intensity values from 5 random cells were averaged, subtracted by the background value (area between cells) and the blank value [the blank control without the Human Phospho-Src (Y416) Antibody], then plotted as percentage against the DMSO control to indicate the effects of compound treatment on the cellular Src kinase phosphorylation levels in the cancer cells (FIGS. 15A-D).

[4] = test system: Src protein activation in NCI-H460 cells; assay: Cancer cell immunocytochemistry assay, Phospho-Src (Y416), NCI-H460; assay type: cell-based, human
Procedure: as §1

OVCAR-8 = assay: Human cancer cell growth inhibition assay (ATP assay), OVCAR-8; assay type: cell-based; settings: for IC50: Homo sapiens, OVCAR-8, 96 h, 4 days, Means±SEM from three independent experiments, read-out: OVCAR-8, IC50
OVCAR-8 cell invasion = assay: Cancer cell invasion assay, OVCAR-8; assay type: cell-based, human
Procedure: (§2) A cancer cell invasion assay was developed based on literature protocols (Methods 2005, 37, 208; EMBO J 2002, 21, 6289; Cellular Signalling 2012, 24, 1276.). Membrane matrix gel (Cat #A1413201, ThermoFisher) was diluted in ice-cold, serum-free RPMI 1640 Medium (Cat #31800022, ThermoFisher) at a concentration of 0.5-0.6 mg/mL. Then it was added to the upper compartment (100 μL per cup) of millicell inserts (Cat #PI8P01250, ThermoFisher) placed in a 24-well plate (Part no. 229123, Celltreat). The plate was incubated at 37° C. for 2 h to allow the liquid gel to solidify. RPMI 1640 Medium supplemented with 10% FBS (300 μL) was added to the well of the plate (lower compartment) as attractant, then DMSO or compounds were added. Human cancer cells (1×10^5 cells in 200 μL of RPMI 1640 Medium) were added to the upper compartment of the insert, then DMSO or compounds were added. After the plate was incubated at 37° C. for 24 h, the cells were fixed on the lower side of the insert membrane with 4% formaldehyde and stained with 1% crystal violet (Part no. IS12146, Innovating Science). The invaded cells on the lower side of the filter were counted under an inverted microscope equipped with either a 4× or a 10× objective (FIG. 11). The cell numbers from 5 random views were averaged and plotted as percentage against the DMSO control (FIG. 12A).

NCI-H460 cell invasion = assay: Cancer cell invasion assay, NCI-H460; assay type: cell-based, human; settings: for inhibition of NCI-H460 cell invasion: 24 h
Procedure: as §2

human TRPA1 = target: T1, human TRPA1 (Homo sapiens, UniProt O75762); assay: In vitro Ca2+ flux counter-screen in human TRPA1 overexpressing cells; assay type: cell-based; settings: counter-screen; read-out: TRPA1 EC50
T1 construct: expressed in transfected cells; host or cells: overexpressing cells

human TRPV3 = target: T2, human TRPV3 (Homo sapiens, UniProt Q8NET8); assay: In vitro Ca2+ flux counter-screen in human TRPV3 overexpressing cells; assay type: cell-based; settings: counter-screen; read-out: TRPV3 EC50
T2 construct: expressed in transfected cells; host or cells: overexpressing cells
T2 sequence (Q8NET8 1-790): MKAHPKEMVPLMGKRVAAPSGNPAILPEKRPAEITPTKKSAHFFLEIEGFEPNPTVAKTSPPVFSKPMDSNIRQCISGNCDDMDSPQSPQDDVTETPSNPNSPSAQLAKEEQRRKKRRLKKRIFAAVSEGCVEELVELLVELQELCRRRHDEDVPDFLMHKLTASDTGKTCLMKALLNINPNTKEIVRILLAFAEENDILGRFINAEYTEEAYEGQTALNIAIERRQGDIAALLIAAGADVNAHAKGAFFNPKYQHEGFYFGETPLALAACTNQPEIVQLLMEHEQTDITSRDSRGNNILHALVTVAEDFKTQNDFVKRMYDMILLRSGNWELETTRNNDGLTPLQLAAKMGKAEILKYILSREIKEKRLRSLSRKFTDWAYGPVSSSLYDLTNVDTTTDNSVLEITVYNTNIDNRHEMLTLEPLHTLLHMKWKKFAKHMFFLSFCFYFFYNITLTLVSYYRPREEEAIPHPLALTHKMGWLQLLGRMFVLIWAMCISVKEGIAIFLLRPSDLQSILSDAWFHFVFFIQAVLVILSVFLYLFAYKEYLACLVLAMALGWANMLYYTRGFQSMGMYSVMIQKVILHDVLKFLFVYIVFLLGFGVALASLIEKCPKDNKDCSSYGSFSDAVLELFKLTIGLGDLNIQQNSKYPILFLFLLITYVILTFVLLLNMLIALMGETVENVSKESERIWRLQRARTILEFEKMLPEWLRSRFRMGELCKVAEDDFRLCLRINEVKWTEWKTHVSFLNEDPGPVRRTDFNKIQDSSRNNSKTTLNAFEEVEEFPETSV

NCI-H460 = assay: Human cancer cell growth inhibition assay (ATP assay), NCI-H460; assay type: cell-based; settings: for IC50: Homo sapiens, NCI-H460, 96 h, 4 days, Means±SEM from three independent experiments, read-out: NCl-H460, IC50
MDA-MB-231 cell invasion = assay: Cancer cell invasion assay, MDA-MB-231; assay type: cell-based, human; settings: for inhibition of MDA-MB-231 cell invasion: 24 h
Procedure: as §2

[5] = test system: Src protein activation in OVCAR-8 cells; assay: Cancer cell immunocytochemistry assay, Phospho-Src (Y416), OVCAR-8; assay type: cell-based, human
Procedure: as §1

MDA-MB-231 = assay: Human cancer cell growth inhibition assay (ATP assay), MDA-MB-231; assay type: cell-based; settings: for IC50: Homo sapiens, MDA-MB-231, 96 h, 4 days, Means±SEM from three independent experiments, read-out: MDA-MB-231, IC50
human TRPV1 = target: T3, human TRPV1 (Homo sapiens, UniProt Q8NER1); assay: In vitro Ca2+ flux assay in human TRPV1 transfected HEK 293 cells; assay type: cell-based; settings: Means±SEM from three independent experiments; read-out: TRPV1 EC50
T3 construct: DYK (FLAG) tag from vector pcDNA3.1+/C-(K)DYK (C); host or cells: FreeStyle 293-F cells (HEK 293), transient transfection

[6] = intraplantar
TRPV1 [7] = target: T4, TRPV1 (Mus musculus, UniProt Q704Y3); assay: Ca2+ imaging of primary mouse dorsal root ganglion (DRG) neurons, TRPV1 desensitization; assay type: cell-based; settings: then capsaicin 0.5 μM
T4 construct: DRG was isolated from male and female mice expressing GCaMP6f in neurons; endogenous in cells; host or cells: dissociated primary DRG neurons from GCaMP6f-expressing mice

[8] = both, mouse, in vivo, 1 min
[9] = 5 mg/kg ip twice per week for 2 weeks
[10] = YB-1 15 μM, capsaicin 50 μM, 1-6 h
[11] = first treatment capsaicin 0.5 μM, YB-11 0.5 μM or YB-16 1.0 μM, paired t-test

T4 sequence (Q704Y3 whole entry): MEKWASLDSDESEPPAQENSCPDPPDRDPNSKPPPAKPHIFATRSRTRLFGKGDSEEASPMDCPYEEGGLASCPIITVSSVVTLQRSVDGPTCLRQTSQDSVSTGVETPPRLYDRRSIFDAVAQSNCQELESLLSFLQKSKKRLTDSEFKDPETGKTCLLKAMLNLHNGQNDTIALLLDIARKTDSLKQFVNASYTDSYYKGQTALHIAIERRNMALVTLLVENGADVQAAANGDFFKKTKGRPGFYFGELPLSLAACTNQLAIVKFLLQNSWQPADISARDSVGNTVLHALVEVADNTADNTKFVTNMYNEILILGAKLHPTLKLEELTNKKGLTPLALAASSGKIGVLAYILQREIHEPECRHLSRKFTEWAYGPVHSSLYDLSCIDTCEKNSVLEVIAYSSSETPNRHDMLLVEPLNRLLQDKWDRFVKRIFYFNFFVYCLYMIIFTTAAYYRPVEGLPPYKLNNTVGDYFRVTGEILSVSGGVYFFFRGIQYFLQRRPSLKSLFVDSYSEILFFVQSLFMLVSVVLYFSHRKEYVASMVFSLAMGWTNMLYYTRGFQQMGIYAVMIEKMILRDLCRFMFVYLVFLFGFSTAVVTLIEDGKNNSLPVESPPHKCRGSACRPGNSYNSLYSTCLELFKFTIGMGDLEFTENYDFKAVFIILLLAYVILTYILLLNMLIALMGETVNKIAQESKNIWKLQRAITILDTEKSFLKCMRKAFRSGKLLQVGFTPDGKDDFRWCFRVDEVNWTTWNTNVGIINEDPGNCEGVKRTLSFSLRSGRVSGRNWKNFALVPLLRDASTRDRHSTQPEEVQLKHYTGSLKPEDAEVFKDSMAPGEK
T1 sequence (O75762 whole entry): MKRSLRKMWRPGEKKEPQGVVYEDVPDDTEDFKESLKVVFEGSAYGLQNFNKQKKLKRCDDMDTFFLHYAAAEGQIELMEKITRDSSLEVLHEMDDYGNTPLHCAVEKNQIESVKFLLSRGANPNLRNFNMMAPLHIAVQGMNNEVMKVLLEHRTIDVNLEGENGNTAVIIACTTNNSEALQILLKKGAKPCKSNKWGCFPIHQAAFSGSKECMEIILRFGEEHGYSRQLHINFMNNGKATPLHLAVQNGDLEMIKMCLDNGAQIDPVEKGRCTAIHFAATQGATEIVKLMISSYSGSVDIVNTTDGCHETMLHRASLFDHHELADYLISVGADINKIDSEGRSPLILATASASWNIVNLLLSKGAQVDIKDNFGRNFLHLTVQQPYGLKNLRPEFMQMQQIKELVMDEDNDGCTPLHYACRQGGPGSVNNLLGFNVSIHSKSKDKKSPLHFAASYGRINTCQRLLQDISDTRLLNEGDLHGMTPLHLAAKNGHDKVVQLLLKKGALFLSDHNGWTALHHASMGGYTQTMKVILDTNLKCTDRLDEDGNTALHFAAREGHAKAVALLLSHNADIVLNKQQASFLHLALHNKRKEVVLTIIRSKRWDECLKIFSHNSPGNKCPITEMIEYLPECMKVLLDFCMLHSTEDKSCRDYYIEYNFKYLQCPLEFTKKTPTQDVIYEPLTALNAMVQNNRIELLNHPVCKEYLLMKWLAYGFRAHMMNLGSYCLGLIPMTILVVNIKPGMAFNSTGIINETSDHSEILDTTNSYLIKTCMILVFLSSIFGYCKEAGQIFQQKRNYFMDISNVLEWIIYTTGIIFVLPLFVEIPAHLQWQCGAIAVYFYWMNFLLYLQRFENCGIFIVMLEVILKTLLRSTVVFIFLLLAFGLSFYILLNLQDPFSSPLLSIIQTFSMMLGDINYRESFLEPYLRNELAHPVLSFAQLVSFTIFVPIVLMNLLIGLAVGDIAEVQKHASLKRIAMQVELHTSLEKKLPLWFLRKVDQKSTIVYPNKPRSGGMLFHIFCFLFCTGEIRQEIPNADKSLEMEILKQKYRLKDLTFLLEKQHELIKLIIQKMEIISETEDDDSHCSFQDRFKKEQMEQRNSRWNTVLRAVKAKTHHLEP
T3 sequence (Q8NER1 whole entry): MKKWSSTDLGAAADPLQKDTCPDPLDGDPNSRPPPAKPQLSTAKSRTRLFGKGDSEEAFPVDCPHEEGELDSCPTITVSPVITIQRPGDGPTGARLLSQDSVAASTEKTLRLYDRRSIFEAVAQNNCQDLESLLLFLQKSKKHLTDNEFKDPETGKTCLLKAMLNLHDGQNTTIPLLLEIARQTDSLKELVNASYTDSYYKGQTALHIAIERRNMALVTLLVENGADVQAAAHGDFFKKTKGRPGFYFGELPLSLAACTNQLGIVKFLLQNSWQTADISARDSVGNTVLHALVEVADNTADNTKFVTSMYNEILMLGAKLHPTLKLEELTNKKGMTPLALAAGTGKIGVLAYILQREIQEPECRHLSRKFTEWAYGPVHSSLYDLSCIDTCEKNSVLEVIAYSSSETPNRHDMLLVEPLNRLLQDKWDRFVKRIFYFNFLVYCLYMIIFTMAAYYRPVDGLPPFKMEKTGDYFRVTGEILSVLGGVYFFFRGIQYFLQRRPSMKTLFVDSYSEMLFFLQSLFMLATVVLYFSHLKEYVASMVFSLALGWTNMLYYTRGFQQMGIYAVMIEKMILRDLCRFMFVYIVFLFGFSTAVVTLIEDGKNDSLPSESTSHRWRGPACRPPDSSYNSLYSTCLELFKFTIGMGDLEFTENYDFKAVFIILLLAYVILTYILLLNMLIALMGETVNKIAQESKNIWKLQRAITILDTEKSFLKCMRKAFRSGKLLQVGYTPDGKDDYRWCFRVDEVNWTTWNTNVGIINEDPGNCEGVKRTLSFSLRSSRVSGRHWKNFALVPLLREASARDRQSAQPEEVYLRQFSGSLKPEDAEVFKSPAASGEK
Chain of TRPV1 (Rattus norvegicus, UniProt O35433) (O35433 whole entry): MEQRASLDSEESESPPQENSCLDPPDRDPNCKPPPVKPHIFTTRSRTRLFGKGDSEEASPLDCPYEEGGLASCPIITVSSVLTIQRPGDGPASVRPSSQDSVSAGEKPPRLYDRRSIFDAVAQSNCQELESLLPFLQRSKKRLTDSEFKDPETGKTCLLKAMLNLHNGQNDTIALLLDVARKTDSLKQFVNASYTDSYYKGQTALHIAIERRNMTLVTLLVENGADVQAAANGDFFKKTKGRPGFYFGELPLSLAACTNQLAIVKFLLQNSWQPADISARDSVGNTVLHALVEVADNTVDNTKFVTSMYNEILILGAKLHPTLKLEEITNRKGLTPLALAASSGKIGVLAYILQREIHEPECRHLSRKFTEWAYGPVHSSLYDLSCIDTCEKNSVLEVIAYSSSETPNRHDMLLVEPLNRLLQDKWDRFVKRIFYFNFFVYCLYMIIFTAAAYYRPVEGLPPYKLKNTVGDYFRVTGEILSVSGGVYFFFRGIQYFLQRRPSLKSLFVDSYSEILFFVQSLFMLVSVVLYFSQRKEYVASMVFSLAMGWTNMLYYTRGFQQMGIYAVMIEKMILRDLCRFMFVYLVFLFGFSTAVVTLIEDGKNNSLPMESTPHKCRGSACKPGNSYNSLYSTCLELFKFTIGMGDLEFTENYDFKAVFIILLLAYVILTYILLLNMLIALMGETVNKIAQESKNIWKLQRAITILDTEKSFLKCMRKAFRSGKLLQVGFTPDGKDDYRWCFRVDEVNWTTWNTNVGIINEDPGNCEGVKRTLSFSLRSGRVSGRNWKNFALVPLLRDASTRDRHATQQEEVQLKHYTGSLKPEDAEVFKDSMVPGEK

CC[C@H](C)C(=O)O[C@H]1C[C@@H](C)C=C2C=C[C@H](C)[C@H](CC[C@@H]3C[C@@H](O)CC(=O)O3)[C@H]21 [Lovastatin]
% Remaining at T120 (Mouse plasma stability): 0.2% | T1/2 (Mouse plasma stability): 12 min

CCCCCCCCC(=O)NCc1ccc(N)c(OC)c1 [N-[(4-amino-3-methoxyphenyl)methyl]-Nonanamide]
EC50 (TRPV1 [1]; as reported in literature): > 10 µM

CC(C)[N+](C)(CCOC(=O)C1c2ccccc2Oc2ccccc21)C(C)C [Propantheline]
% Remaining at T120 (Mouse plasma stability): 20% | T1/2 (Mouse plasma stability): 55 min

C=C(C)[C@]12C[C@@H](C)[C@@]34O[C@](Cc5ccccc5)(O[C@@H]1[C@@H]3C=C(COC(=O)Cc1ccc(O)c(OC)c1)C[C@]1(O)C(=O)C(C)=C[C@@H]41)O2 [Resiniferatoxin (RTX), Resiniferatoxin]
solubility in water [2]: insoluble in water

COc1cc(CNC(=O)CCCC/C=C/C(C)C)ccc1NC(=O)CCCC/C=C/C(C)C [YB-1]
average body weight loss (OVCAR-8 ovarian tumor; [9]): 7% | less tumor burden compared to vehicle group (average radiant efficiency, IVIS) (OVCAR-8 ovarian tumor; [9]): 40% | tumor burden in vivo (OVCAR-8 ovarian tumor; FIG. 16): reduces tumor burden in vivo | potency in inhibiting Src protein activation compared to capsaicin [3]: at least 3 fold | cellular Src kinase phosphorylation levels [3, 10]: time-dependently reduced the cellular Src kinase phosphorylation levels | potency in inhibiting Src protein activation compared to capsaicin [4]: at least 3 fold | cellular Src kinase phosphorylation levels [4, 10]: time-dependently reduced the cellular Src kinase phosphorylation levels | IC50 (OVCAR-8): 38 µM | potency in growth inhibition compared to capsaicin (OVCAR-8; OVACR-8 cell line): 6 fold | inhibition of OVCAR-8 cell invasion (OVCAR-8 cell invasion; 24 h): dose-dependently inhibited | potency in inhibiting cell invasion compared to capsaicin (OVCAR-8 cell invasion; OVCAR-8): ~3 fold | inhibition of NCI-H460 cell invasion (NCI-H460 cell invasion): dose-dependently inhibited | potency in inhibiting cell invasion compared to capsaicin (NCI-H460 cell invasion; NCI-H460): ~10 fold | EC50 (human TRPA1): > 10 µM | EC50 (human TRPV3): > 10 µM | IC50 (NCI-H460): 11 µM | potency in growth inhibition compared to capsaicin (NCI-H460; NCI-H460 cell line): 18 fold | inhibition of MDA-MB-231 cell invasion (MDA-MB-231 cell invasion): dose-dependently inhibited | potency in inhibiting cell invasion compared to capsaicin (MDA-MB-231 cell invasion; MDA-MB-231): about 4 fold | potency in inhibiting Src protein activation compared to capsaicin [5]: at least 3 fold | cellular Src kinase phosphorylation levels [5, 10]: time-dependently reduced the cellular Src kinase phosphorylation levels | IC50 (MDA-MB-231): 38 µM | potency in growth inhibition compared to capsaicin (MDA-MB-231; MDA-MB-231 cell line): 10 fold

COc1cc(CNC(=O)CCCC/C=C/C(C)C)ccc1NC(C)=O [YB-9]
cellular Src kinase phosphorylation levels ([3]; at about 40% of IC50 concentration from cell growth inhibition assay, 4 h): significantly reduced the cellular Src kinase phosphorylation levels | IC50 (OVCAR-8): 34 ± 12 µM | inhibition of NCI-H460 cell invasion (NCI-H460 cell invasion): dose-dependently inhibited the NCI-H460 cell invasion from 15 μM to 60 μM | EC50 (human TRPA1): > 10 µM | EC50 (human TRPV3): > 10 µM | IC50 (NCI-H460): 65 ± 15 µM | inhibition of MDA-MB-231 cell invasion (MDA-MB-231 cell invasion): dose-dependently inhibited | IC50 (MDA-MB-231): 75 ± 20 µM

COc1cc(CC(=O)N/C=C/c2ccc(C(F)(F)F)cc2)ccc1O [YB-11]
IC50 (OVCAR-8): 65 µM | EC50 (human TRPV1): < 0.1 µM and 0.012 to 0.048 µM and 0.012 µM | animal death and sedation in formalin test [6]: No mice treated with YB-16, YB-11 or YB-2 died or experienced sedative reaction | reduction of formalin first phase behavior ([6]; 10 g, 2 hr prior to formalin): 36% | EC50 (human TRPA1): > 10 µM | TRPV1-sensitive neurons showing desensitization (TRPV1 [7]; first treatment 0.5 μM): 67% | area under the curve of the Ca2+ signal of the second (capsaicin) application (TRPV1 [7]; [11]): statistically significant reduction; also recorded: significantly reduced | max Ca2+ signal of the second (capsaicin) application (TRPV1 [7]; [11]): statistically significant reduction; also recorded: significantly reduced | EC50 (human TRPV3): > 10 µM | IC50 (NCI-H460): 87 ± 10 µM | inhibition of MDA-MB-231 cell invasion (MDA-MB-231 cell invasion): dose-dependently inhibited | MPP [8]: 0.101 mg/mL | IC50 (MDA-MB-231): 129 ± 21 µM

COc1cc(CN(C)C(=O)CCCCC=CC(C)C)ccc1O [capsaicin analog 3d]
EC50 (TRPV1 [1]): > 100 µM
